Assay results taken from US9683253B2, “Method and device for identifying cells” (IMEC, priority 2013, dated 2017).

Assays:
MCF7 cells = type: cell-based
PBMC = type: cell-based

SLO
dose dependence of change in Fc (MCF7 cells): the higher the dose, the bigger the change in the Fc | recovered Fc versus native Fc (MCF7 cells): increases higher than the native Fc | recovered Fc versus native Fc (PBMC): drops to a lower value than the native Fc
